Experimental data from patent publication US12331051B2 (priority 2021, dated 2025).
Like-named read-outs stand apart in the source and are kept apart here.

What was measured:
[1] = target: H3 histaminergic receptor (Homo sapiens, UniProt Q9Y5N1); experiment: BRET-based G protein dissociation assay; assay type: cell-based; conditions: percentage of the reference ligand-induced maximal response
stress naive mice = experiment: Forced swim test (FST), stress naive mice; assay type: in vivo, mouse
Experimental: In brief, stress naive mice were treated (IP injection) with either saline (control) or single dose of the “E559 polymorph” at 0.3, 1, or 3 mg/kg dose levels and were evaluated 24 hours (OFT) and […] after treatment. The OFT was performed described in Example 13. The FST was performed as previously described in (Aguilar-Valles et al., Nature, 2021, 590, p315-319). Briefly FST was performed 24-hour post treatment by placing the mice (one by one) in a 4-liter wide-mouthed flask of 35° C. water. Mice activities were recorded for 6 minutes and assessed for total time the animal remains immobile, a sign of depressive-like behavior. FIG. 25A depicts the study design where female/male mice (n=10/group/sex) were treated by IP injection with the “E559 polymorph” or vehicle (saline) followed by open field and force swim test 24 hours post treatment. FIGS. 25B and 25E represent the total distance travelled in the open field test 24 hours after vehicle or the “E559 polymorph” in female and male mice, respectively. FIGS. 25C and 25F represent the time in the center of the open field by female and male mice, respectively. FIGS. 25D and 25G represent the immobility time during the last 4 minutes of the forced swim test in female and male mice, respectively. Horizontal lines represent the mean±standard error of the mean (S.E.M.) and asterisks indicate statistical significances.

[2] = target: ADRa2B (α2B adrenergic receptor) (Homo sapiens, UniProt P18089); experiment: BRET-based G protein dissociation assay; assay type: cell-based
Sequence of ADRa2B (α2B adrenergic receptor) (P18089 whole entry): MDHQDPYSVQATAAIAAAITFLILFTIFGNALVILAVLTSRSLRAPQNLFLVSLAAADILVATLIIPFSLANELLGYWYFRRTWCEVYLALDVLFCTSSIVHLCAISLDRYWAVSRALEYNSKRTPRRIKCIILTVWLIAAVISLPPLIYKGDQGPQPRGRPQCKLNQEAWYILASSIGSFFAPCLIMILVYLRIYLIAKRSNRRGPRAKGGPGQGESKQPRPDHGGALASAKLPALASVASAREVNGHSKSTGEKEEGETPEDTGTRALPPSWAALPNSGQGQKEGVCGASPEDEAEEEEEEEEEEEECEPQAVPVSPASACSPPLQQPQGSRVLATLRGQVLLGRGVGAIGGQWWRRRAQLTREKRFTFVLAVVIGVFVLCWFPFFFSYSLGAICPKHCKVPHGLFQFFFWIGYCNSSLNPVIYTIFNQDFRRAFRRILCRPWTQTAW

5-HT1F = target: T1, 5-HT1F (Homo sapiens, UniProt P30939); experiment: Functional assay (cAMP); assay type: cell-based
T1 construct: expressed in transfected cells; host or cells: HEK-293
T1 sequence (P30939 1-366): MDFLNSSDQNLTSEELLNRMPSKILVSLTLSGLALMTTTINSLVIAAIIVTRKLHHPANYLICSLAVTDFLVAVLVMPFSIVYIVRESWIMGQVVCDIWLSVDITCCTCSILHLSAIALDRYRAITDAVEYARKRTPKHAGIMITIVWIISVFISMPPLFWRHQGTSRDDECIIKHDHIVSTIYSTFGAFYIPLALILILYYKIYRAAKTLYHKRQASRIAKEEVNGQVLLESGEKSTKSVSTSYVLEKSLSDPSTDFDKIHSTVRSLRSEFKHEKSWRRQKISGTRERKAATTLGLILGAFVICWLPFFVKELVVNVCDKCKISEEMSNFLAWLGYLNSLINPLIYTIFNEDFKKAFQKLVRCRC
Experimental: (§1) Neuro-receptor binding and functional effects of the “E559 polymorph” was examined by analyzing binding affinity [Ki (nM)], functional agonist activity [EC50 (nM)], and functional antagonist activity [IC50 (nM)] against a panel of key receptors in neurophysiological disorders. Binding and functional assays were performed at “E559 polymorph” concentrations of 0.0003, 0.003, 0.01, 0.03, 0.1, 0.3, 1, and 10 μM. In binding assays, cell membrane homogenates, expressing each receptor target, were incubated with the corresponding radio-ligand in absence or presence of several concentration of the “E559 polymorph” compound. The measurement of binding affinity of the “E559 polymorph” is represented in TABLE XIII by Ki (nM) which was calculated as percent inhibition of the binding of a radioactively labeled reference ligand at each receptor. In functional assays the HEK-293 cells expressing each receptor target were suspended in buffer and distribute in microplates and incubated for 30 minutes at room temperature or 37° C. in the presence of buffer alone (basal control), the reference agonist or antagonist, or the “E559 polymorph. Following incubation, the cells were lysed and the appropriate fluorescent probe (Ca2+ flux, cAMP, or IP1) were added for 60 minutes to measure the fluorescence transfer at the appropriate wavelength using a microplate reader. The cellular agonist effect (EC50) was calculated as a percent of control response to a known reference agonist and the cellular antagonist effect (IC50) was calculated as a percent inhibition of control reference agonist response for each receptor.
(§2) The functional agonist activity [EC50 (nM), Emax], and functional antagonist activity [IC50 (nM)] of the 5R:8S stereoisomer of the “E559 polymorph” (5R:8S E558) was compared with the “E559 polymorph” (a 5R:8R stereoisomer) at selected serotonin receptors. The assays were performed as described in Example 6.

[3] = target: T2, 5-HT2A receptor (5-HT2AR) (Homo sapiens, UniProt P28223); experiment: Functional assay in HEK-293 cells (IP1); assay type: cell-based
T2 construct: expressed in transfected cells; host or cells: HEK-293
T2 sequence (P28223 whole entry): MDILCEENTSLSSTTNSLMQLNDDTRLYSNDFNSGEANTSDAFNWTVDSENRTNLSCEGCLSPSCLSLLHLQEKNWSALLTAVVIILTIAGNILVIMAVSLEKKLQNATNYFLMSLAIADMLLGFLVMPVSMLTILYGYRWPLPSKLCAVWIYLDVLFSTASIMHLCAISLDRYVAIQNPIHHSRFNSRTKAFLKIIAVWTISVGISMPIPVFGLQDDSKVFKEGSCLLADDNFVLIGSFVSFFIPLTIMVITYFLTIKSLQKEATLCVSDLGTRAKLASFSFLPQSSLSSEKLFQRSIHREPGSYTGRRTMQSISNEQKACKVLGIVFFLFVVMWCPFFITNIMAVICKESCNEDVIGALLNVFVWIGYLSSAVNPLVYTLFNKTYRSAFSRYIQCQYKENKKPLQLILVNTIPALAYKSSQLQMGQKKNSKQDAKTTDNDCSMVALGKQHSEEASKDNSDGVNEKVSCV
Experimental: as §1, §2

[4] = target: T3, Serotonin 2B receptor (5-HT2BR) (Homo sapiens, UniProt P41595); experiment: Functional assay in HEK-293 cells (IP1); assay type: cell-based
T3 construct: expressed in transfected cells; host or cells: HEK-293
T3 sequence (P41595 whole entry): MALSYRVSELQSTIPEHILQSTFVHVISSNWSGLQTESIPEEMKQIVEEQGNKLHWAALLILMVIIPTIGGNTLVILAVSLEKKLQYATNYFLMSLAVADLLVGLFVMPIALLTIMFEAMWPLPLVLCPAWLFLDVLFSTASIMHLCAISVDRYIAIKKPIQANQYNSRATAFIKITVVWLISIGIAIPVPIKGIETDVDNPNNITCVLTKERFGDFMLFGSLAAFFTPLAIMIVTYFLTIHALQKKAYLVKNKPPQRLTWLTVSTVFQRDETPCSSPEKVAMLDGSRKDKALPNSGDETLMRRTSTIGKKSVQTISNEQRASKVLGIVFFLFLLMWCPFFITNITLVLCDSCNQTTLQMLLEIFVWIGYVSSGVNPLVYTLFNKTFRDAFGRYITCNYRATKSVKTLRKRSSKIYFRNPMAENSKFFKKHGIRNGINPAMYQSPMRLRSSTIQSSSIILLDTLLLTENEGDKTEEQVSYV
Experimental: as §1, §2

[5] = HEK293, IP1, ligand 5-HT, read-out: Functional Assay (agonist) Emax
[6] = read-out: Funcational Assay (antagonist) IC50, IP1, ligand 5-HT
[7] = read-out: Functional Assay (agonist) EC50, IP1, ligand 5-HT

Sequence of H3 histaminergic receptor (Q9Y5N1 whole entry): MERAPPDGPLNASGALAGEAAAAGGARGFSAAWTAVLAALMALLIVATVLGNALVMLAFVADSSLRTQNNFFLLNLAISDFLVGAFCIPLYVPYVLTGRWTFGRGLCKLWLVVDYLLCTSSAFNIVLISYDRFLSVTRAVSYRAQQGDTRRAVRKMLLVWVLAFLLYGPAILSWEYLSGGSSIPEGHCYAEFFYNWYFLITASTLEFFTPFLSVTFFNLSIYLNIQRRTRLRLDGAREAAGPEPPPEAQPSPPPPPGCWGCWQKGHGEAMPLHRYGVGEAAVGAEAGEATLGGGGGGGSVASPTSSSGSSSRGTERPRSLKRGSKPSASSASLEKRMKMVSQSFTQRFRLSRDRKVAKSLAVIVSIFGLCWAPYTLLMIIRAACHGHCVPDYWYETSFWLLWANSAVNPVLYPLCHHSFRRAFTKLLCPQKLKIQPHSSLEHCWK

CCN(CC)C(=O)[C@@H]1C=C2c3cccc4[nH]cc(c34)C[C@H]2N(C)C1 [LSD, lysergic acid diethylamide, reference compound]
Emax [1]: 18.6%

CCN(CC)C(=O)[C@@H]1C=C2c3cccc4[nH]c(Br)c(c34)C[C@H]2N(C)C1 [E559, (5R, 8R)-2-Bromo-9,10-didehydro-N,N-diethyl-6-methylergoline-8-carboxamide hemi-D-tartrate]
decrease in immobility (stress naive mice; female mice, IP 1 mg/kg): 35.18 ± 10.03 s
decrease in immobility (stress naive mice; male mice, IP 1 mg/kg): 27.27 ± 8.226 s
decrease in immobility (stress naive mice; male mice, IP 3 mg/kg): 31.36 ± 8.226 s
Kb [2]: 79.2 nM
EC50 (5-HT1F): 13.8 nM
Emax (5-HT1F; cAMP, ligand 5-HT, read-out: Functional Assay (agonist) Emax): 92.6%
EC50 [3]: 11 nM
IC50 [3]: 24.9 nM
Emax [3, 5]: 99%
IC50 [3, 6]: 24.9 nM
EC50 [3, 7]: 11 nM
EC50 [4]: > 10 µM
IC50 [4]: 97 nM
Emax [4, 5]: 0%
IC50 [4, 6]: 97 nM
EC50 [4, 7]: > 10 µM
